Measured values as given in patent US20100076013A1, “Methods of Treatment” (Novartis AG, priority 2006, published 2010).

What was measured:
MV-4-11 = assay: CellTiter-Glo cell viability assay; assay type: cell-based; conditions: Homo sapiens, MV4-11; MV-4-11, AML; 72 hours
Description: (§1) See Kelly et al. (2002). […] See Cools et al. (2004).
(§2) The EC50s were determined using CellTiter-Glo (Promega), a bioluminescent, cell viability assay measuring ATP levels in viable cells. Cells were plated in assay plates and incubated with a range of compound concentrations for 72 hours. Cells were lysed and ATP levels were determined using CellTiter-Glo reagent on a luminometer according to manufacturer's instructions. EC50 refers to the concentration of compound that inhibited 50% of cell growth.

SR = assay: CellTiter-Glo cell viability assay; assay type: cell-based; conditions: Homo sapiens, LCIL, 72 hours
Description: as §2

NOMO-1 = assay: CellTiter-Glo cell viability assay; assay type: cell-based; conditions: Homo sapiens; NOMO-1, AML; 72 hours
Description: as §2

KU812 = assay: CellTiter-Glo cell viability assay; assay type: cell-based; conditions: Homo sapiens; KU812, CML; 72 hours
Description: as §2

Reh = assay: CellTiter-Glo cell viability assay; assay type: cell-based; conditions: Homo sapiens, B-ALL, 72 hours
Description: as §2

LAMA-84 = assay: CellTiter-Glo cell viability assay; assay type: cell-based; conditions: Homo sapiens; LAMA-84, CML; 72 hours
Description: as §2

D1.1 = assay: CellTiter-Glo cell viability assay; assay type: cell-based; conditions: D1.1, T-ALL; 72 hours
Description: as §2

CCRF-HSB-2 = assay: CellTiter-Glo cell viability assay; assay type: cell-based; conditions: Homo sapiens; CCRF-HSB-2, T-ALL; 72 hours
Description: as §2

Karpas-299 = assay: CellTiter-Glo cell viability assay; assay type: cell-based; conditions: Homo sapiens; Karpas-299, ALCL; 72 hours
Description: as §2

EM-2 = assay: CellTiter-Glo cell viability assay; assay type: cell-based; conditions: Homo sapiens; EM-2, CML; 72 hours
Description: as §2

CEM/C1 = assay: CellTiter-Glo cell viability assay; assay type: cell-based; conditions: CEM/C1, T-ALL; 72 hours
Description: as §2

CCRF-CEM = assay: CellTiter-Glo cell viability assay; assay type: cell-based; conditions: Homo sapiens, T-ALL, 72 hours
Description: as §2

Kasumi-1 = assay: CellTiter-Glo cell viability assay; assay type: cell-based; conditions: Homo sapiens; Kasumi-1, AML; 72 hours
Description: as §2

NB-4 = assay: CellTiter-Glo cell viability assay; assay type: cell-based; conditions: Homo sapiens; NB-4, AML; 72 hours
Description: as §2

KE-37 = assay: CellTiter-Glo cell viability assay; assay type: cell-based; conditions: Homo sapiens; KE-37, T-ALL; 72 hours
Description: as §2

JURL-MK2 = assay: CellTiter-Glo cell viability assay; assay type: cell-based; conditions: JURL-MK2, CML; 72 hours
Description: as §2

RL = assay: CellTiter-Glo cell viability assay; assay type: cell-based; conditions: Homo sapiens, B-NHL, 72 hours
Description: as §2

HSB-2 = assay: CellTiter-Glo cell viability assay; assay type: cell-based; conditions: HSB2; HSB-2, T-ALL; 72 hours
Description: as §2

PL-21 = assay: CellTiter-Glo cell viability assay; assay type: cell-based; conditions: PL-21, AML; 72 hours
Description: as §2

JURL-MK1 = assay: CellTiter-Glo cell viability assay; assay type: cell-based; conditions: JURL-MK1, CML; 72 hours
Description: as §2

JK-1 = assay: CellTiter-Glo cell viability assay; assay type: cell-based; conditions: JK-1, CML; 72 hours
Description: as §2

OCI-AML3 = assay: CellTiter-Glo cell viability assay; assay type: cell-based; conditions: Homo sapiens, OCI-AML-3, 72 hours
Description: as §2

ML-2 = assay: CellTiter-Glo cell viability assay; assay type: cell-based; conditions: Homo sapiens; ML-2, AML; 72 hours
Description: as §2

CEM/C2 = assay: CellTiter-Glo cell viability assay; assay type: cell-based; conditions: Homo sapiens; CEM/C2, T-ALL; 72 hours
Description: as §2

MOLT-3 = assay: CellTiter-Glo cell viability assay; assay type: cell-based; conditions: Homo sapiens; MOLT-3, T-ALL; 72 hours
Description: as §2

NALM-1 = assay: CellTiter-Glo cell viability assay; assay type: cell-based; conditions: NALM-1, CML; 72 hours
Description: as §2

EM-3 = assay: CellTiter-Glo cell viability assay; assay type: cell-based; conditions: EM-3, CML; 72 hours
Description: as §2

EOL-1 = assay: CellTiter-Glo cell viability assay; assay type: cell-based; conditions: Homo sapiens, EOL1; EOL-1, AML; 72 hours
Description: as §2

KARPAS-45 = assay: CellTiter-Glo cell viability assay; assay type: cell-based; conditions: KARPAS-45, T-ALL; 72 hours
Description: as §2

L-428 = assay: CellTiter-Glo cell viability assay; assay type: cell-based; conditions: Homo sapiens; L-428, HL; 72 hours
Description: as §2

G697R-Ba/F3 [1] = assay: Trypan blue exclusion proliferation assay; assay type: cell-based, murine; conditions: PKC412-resistant line G697R-Ba/F3; FIGS. 1-2
From the text: as §1
(§3) See Weisberg et al. (2002).

D835Y-Ba/F3 cells = assay: Trypan blue exclusion proliferation assay; assay type: cell-based, murine; conditions: PKC412-sensitive line D835Y-Ba/F3; three-day treatment, FIG. 3
From the text: as §1, §3

G697R-Ba/F3 [2] = assay: Induction of apoptosis (Annexin-V staining) and caspase activity; assay type: cell-based, murine; conditions: 1 μM, following 2 days and 3 days, respectively
From the text: as §1, §3

FLT3-ITD-Ba/F3 [3] = conditions: PKC412-sensitive line FLT3-ITD-Ba/F3; FIGS. 1-2
Description: (§4) The IL-3-dependent murine hematopoietic cell line Ba/F3 are transduced with either FLT3-ITD or FLT3-D835Y-containing MSCV retroviruses harboring a neomycin selectable marker, and selected for resistance to neomycin. See Kelly et al. (2002). FLT3-ITD transduced cells are selected for growth in G418 (1 mg/mL). PKC412-resistant Ba/F3 cell lines, which express FLT3-ITD harboring a mutation in the ATP-binding pocket (F691L, A627T, G697R, N676D), are developed as described previously. See Cools et al. (2004). The human AML-derived, FLT3-ITD-expressing cell line, MV4; 11 [see Quentmeier et al. (2003)], is provided by Dr. Scott Armstrong, Dana Farber Cancer Institute, Boston, Mass. The human AML-derived, FLT3-ITD-expressing cell line, MOLM-13, is modified to express luciferase and provided as MOLM13-luc+ by Dr. Andrew Kung, Dana Farber Cancer Institute, Boston, Mass. All cell lines are cultured with 5% CO2 at 37° C., at a concentration of 2×10^5 to 5×10^5 in RPMI (Mediatech, Inc., Herndon, Va.) with 10% fetal calf serum and supplemented with 1% glutamine. Parental Ba/F3 cells expressing wild-type FLT3 are similarly cultured with 15% WEHI-conditioned medium as a source of IL-3. All transfected cell lines are cultured in media supplemented with 1 mg/mL G418.
(§5) N-[1-cyclohexyl-2-oxo-2-(6-phenethyl-octahydro-pyrrolo[2,3-c]pyridin-1-yl-ethyl]-2-methylamino-propionamide is synthesized by Novartis Pharma AG, Basel, Switzerland, and dissolved in DMSO to make 10 mM stock solutions. Serial dilutions are then made, also in DMSO, to obtain final dilutions for cellular assays.
(§6) The trypan blue exclusion assay has been previously described [see Weisberg et al. (2002)], and is used to determine proliferation of cells cultured in the presence and absence of LBW242. Cell viability is reported as percentage of control (untreated) cells. Error bars represent the standard error of the mean for each data point. Apoptosis of drug-treated cells is measured using the Annexin-V-Fluos Staining Kit (Boehringer Mannheim, Indianapolis, Ind.), as previously described. See Weisberg et al. (2002).

[4] = test system: wild-type FLT3-expressing Ba/F3 cells; conditions: FIG. 3
Description: as §4, §5, §6

[5] = test system: FLT3-ITD-Ba/F3 cells expressing firefly luciferase; assay: Mouse model of acute leukemia, tumor burden by bioluminescence imaging; assay type: in vivo, NCr nude mice; conditions: for Student t-test p of bioluminescence (tumor burden), vehicle versus compound alone: 50 mg/kg oral gavage, NCr nude mice
Description: FIG. 4 illustrates NCR nude mice injected with 800,000 Ba/F3-FLT3-ITD-luc+ cells via IV tail vein, and then treated for up to 10 days by oral gavage with vehicle (NMP+PEG300), LBW242 (50 mg/kg).

[6] = test system: mutant FLT3-expressing cells; conditions: annexin-pi staining and caspase assays; effective concentrations in the micromolar range
Description: as §6

[7] = test system: PKC412-sensitive and resistant mutant FLT3-expressing cells
Description: as §6

[8] = test system: Mutant FLT3-expressing cells
Description: as §4

FLT3-ITD-Ba/F3 [9] = conditions: 1 μM, following 2 days and 3 days, respectively
Description: as §4, with “Parental Ba/F3 cells expressing wild-type FLT3 are similarly cultured with 15% WEHI-conditioned medium as a source of IL-3. All transfected cell lines are cultured in media supplemented with 1 mg/mL G418.” left out
The trypan blue exclusion assay has been previously described [see Weisberg et al. (2002)], and is used to determine proliferation of cells cultured in the presence and absence of LBW242. […] Apoptosis of drug-treated cells is measured using the Annexin-V-Fluos Staining Kit (Boehringer Mannheim, Indianapolis, Ind.), as previously described. […]

With CN[C@@H](C)C(=O)N[C@H](C(=O)N1CCC[C@H]1c1nc(C(=O)c2ccc(F)cc2)cs1)C1CCCCC1 [(S)—N—((S)-1-Cyclohexyl-2-{(S)-2-[4-(4-fluoro-benzoyl)-thiazol-2-yl]-pyrrolidin-1-yl}-2-oxo-ethyl)-2-methylamino-propionamide] the EC50 (MV-4-11) was 14 µM, the EC50 (SR) was 11.6 µM and the EC50 (NOMO-1) was 4.08 µM. For the same molecule, the EC50 (KU812) was 1.94 µM, the EC50 (Reh) was 0.0791 µM and the EC50 (LAMA-84) was 0.203 µM. It also gave an EC50 (D1.1) of 7.35 µM, an EC50 (CCRF-HSB-2) of 6.3 µM and an EC50 (Karpas-299) of 10.8 µM. It also gave an EC50 (EM-2) of 0.696 µM, an EC50 (CEM/C1) of 4.6 µM and an EC50 (CCRF-CEM) of 0.676 µM. The EC50 (Kasumi-1) was 8.64 µM, the EC50 (NB-4) was 0.0146 µM and the EC50 (KE-37) was 5.1 µM. For the same molecule, the EC50 (JURL-MK2) was 12.7 µM, the EC50 (RL) was 9.68 µM and the EC50 (HSB-2) was 0.4 µM. For the same molecule, the EC50 (PL-21) was 3.55 µM, the EC50 (JURL-MK1) was 11.8 µM and the EC50 (JK-1) was 3.49 µM. For the same molecule, the EC50 (OCI-AML3) was 4.08 µM, the EC50 (ML-2) was 0.015 µM and the EC50 (CEM/C2) was 3.83 µM. For the same molecule, the EC50 (MOLT-3) was 10.2 µM, the EC50 (NALM-1) was 3.54 µM and the EC50 (EM-3) was 13.8 µM. For the same molecule, the EC50 (EOL-1) was 1.66 µM, the EC50 (KARPAS-45) was 10.5 µM and the EC50 (L-428) was 7.3 µM.
For CNC(C)C(=O)NC(C(=O)N1CCC2CCN(CCc3ccccc3)CC21)C1CCCCC1 (centres unmarked) [N-[1-cyclohexyl-2-oxo-2-(6-phenethyl-octahydro-pyrrolo[2,3-c]pyridin-1-yl-ethyl]-2-methylamino-propionamide], the “doses at which activity is displayed against the cells in culture” value (shortened to “doses at which activity is displayed”) (G697R-Ba/F3 [1]) was ≥ 1 µM, the “doses at which activity is displayed” value (D835Y-Ba/F3 cells) was ≥ 1 µM and the “induction of apoptosis and caspase activity” value (G697R-Ba/F3 [2]) was “found”. The “doses at which activity is displayed” value (FLT3-ITD-Ba/F3 [3]) was ≥ 1 µM, the “concentrations that led to death of the cells” value [4] was > 1 µM and the “inhibitory effects on cell growth” value ([4]; concentrations ≦1 μM) was “no inhibitory effects”. The “Student t-test p of bioluminescence (tumor burden), vehicle versus compound alone” value ([5]; day 5 post-IV injection) was ≤ 0.0773, the “Student t-test p of bioluminescence (tumor burden), vehicle versus compound alone” value ([5]; day 7 post-IV injection) was ≤ 0.05625 and the “tolerability of doses effective against mutant FLT3” value ([5]; in vivo) was “well-tolerated”. The induction of apoptosis [6] was “modestly observed”, the “inhibition of cells in vitro” value [7] was “inhibits” and the “rescue of treated cells from cytotoxic effects by WEHI (source of IL-3)” value [8] was “did not rescue”. The “induction of apoptosis and caspase activity” value (FLT3-ITD-Ba/F3 [9]) was “found”.
For CO[C@@H]1[C@H](N(C)C(=O)c2ccccc2)C[C@H]2O[C@]1(C)n1c3ccccc3c3c4c(c5c6ccccc6n2c5c31)C(=O)NC4 [PKC412, reference compound], the “rescue of treated cells from cytotoxic effects by WEHI (source of IL-3)” value [8] was “fully rescued”.
